Structures can show the parent of a compound that is named as a salt.

The subject of the experiment is lipid peroxidation in rat cerebral cortical homogeneates. As to the kind of experiment: Inhibitory effect on lipid peroxidation in rat cerebral cortical homogenates (thiobarbituric acid method). It counts as biochemical. The following applies: lipoperoxide production in Jcl. Wistar rat cerebral cortex homogenate supernatant, 37° C. for 30 minutes, absorbance at 532 nm, vs DMSO-added group. How it is done:
Inhibitory effect on lipid peroxidation in rat cerebral cortical homogeneates and oral administration to mouse.
Quantitative determination of lipoperoxide produced in brain homogenate was performed according to the method of Stocks et al. (Clin. Sci. Mol. Med. 47–215(1974)). As animals, brains of Jcl. Wistar male rats, 10–13 weeks age, were used. Rat cerebral cortices were obtained after decapitation, homogenized in an ice-cooled phosphate saline buffer (50 mM Ph 7.4) (Nichion Microhomogenizer, S-310E), centrifuged at 10,000 g for 10 minutes (Hitachi CF15D type, RT15A6 Anglerotor), and the supernatant was used in a test. This supernatant was diluted 3-fold with the same buffer. To this 1 mL were added 10 μL of test drugs dissolved in dimethyl sulfoxide (DMSO) to the final concentration of 0.0125, 0.025, 0.05, 0.10, 0.20, 0.40, 0.80 and 1.60 μM, respectively, which was incubated at 37° C. for 30 minutes. The reaction was stopped by addition of 200 μL of 35% perchloric acid, and centrifuged at 13,000 g for 10 minutes. To 1 mL of this supernatant was added 0.5 mL of 2-thiobarbituric acid (500 mg/100 mL) dissolved in 50% acetic acid, heated to boil at 95° C. for 15 minutes, which was determined by the absorbance at 532 nm. […]

As a reminder, the IC50 is the concentration that inhibits the measured activity by half. Low readings indicate higher potency, high ones lower potency. Consider `Cc1c(C)c2c(c3c1NC(C)(C)C3)CC(C)(C)O2` [Example 3, 1,6,7,8-Tetrahydro-2,2,4,5,7,7-hexamethyl-2H-furo [3,2-e]indole oxalate], for which half-maximal inhibition (IC50) required 0.127 µM.

The molecule `Cc1c(C)c2c(c3c1NC(C)(C)C3)CC(C)(CN1CCC(NC(c3ccccc3)c3ccccc3)CC1)O2` (centres unmarked) [Example 11, N-(Diphenylmethyl)-1-[(1,6,7,8-tetrahydro-2,4,5,7,7-pentamethyl-2H-furo[3,2-e]indol-2-yl)methyl]-4-piperidineamine dihydrochloride] came in with an IC50 of 0.057 µM.

The values above are taken from patent publication US7008940B1, “Dihydrobenzofuran derivatives, process for the preparing thereof and agents” (Takeda Pharmaceutical Company Limited, priority 1999, dated 2006).
